Converted amounts (≈) assume the structure as drawn. Where a name gives a salt, the structure may show the parent alone. Read-outs that look alike come from different tables or passages of the source.
Tests used:
Treponema hyodysenteriae = assay: Minimum inhibiting concentration against Treponema hyodysenteriae, agar diffusion test with dilution series; assay type: cell-based; settings: for MIC: Brachyspira hyodysenteriae, read-out: Minimum inhibiting concentration (MIC)
Description: In order to detect the surprising effect on Treponema hyodysenteriae, this microorganism was cultivated according to the method of Harris on a trypticase-soy-agar using an addition of horse blood of 5% in a CO2 /H2 atmosphere, and the minimum inhibiting concentration of Salinomycin was determined in the agar diffusion test, while using the corresponding dilution series, as compared against commercial preparations showing a particularly good effect in dysentery diseases.

[1] = Piglet test S 83/75: incidence of diarrhea in feeding test (Example 1); assay type: in vivo, piglets
Description: A feeding test using Salinomycin was carried out on 78 piglets which were kept in boxes with 4 (or 3) animals each. At the beginning of the test, the animals were about 4 weeks old. Four replicates formed one group, and the following treatments were carried out:
1st group: untreated control group
2nd group: Salinomycin as raw product 25 mg/kg of fodder
3rd group: Salinomycin as raw product 50 mg/kg of fodder
4th group: Salinomycin as mycelium 50 mg/kg of fodder
5th group: comparison preparation A 50 mg/kg of fodder (5-Nitromidazol)
The basic feed had the following composition:
The occurrence of diarrhea in the individual boxes (sub-groups) was registered in the test periods of 14 days each and in the total test run of 56 days.

[2] = Feeding test with Salinomycin as raw product: growth and feed efficiency in early weaned piglets (Example 2); assay type: in vivo; settings: for statistical significance of the improvement (weight gain and feed efficiency): vs control; for Feed efficiency per animal, relative / Weight gain per animal, relative: relative to control
Description: A feeding test using Salinomycin as a raw product was carried out on 46 piglets weaned at an early age (4 weeks old) that were kept in sub-groups comprising 3 or 4 animals.
Initial weight: 9.8 kg on an average. The feed ration indicated in Example 1 served as basic feed.
4 Sub-groups comprising 15 animals altogether formed the untreated control group. 4 Sub-groups comprising 16 animals altogether were given 25 mg of Salinomycin as raw product per kg of feed, and 4sub-groups comprising 15 animals altogether were given 50 mg of Salinomycin per kg of feed in the form of the raw product. The test period was 8 weeks, with individual weighing at intervals of 2 weeks.

[3] = Feeding test with Salinomycin as mycelium: growth and feed efficiency in early weaned piglets (Example 3); assay type: in vivo; settings: for Feed efficiency per animal, relative / Weight gain per animal, relative: relative to control
Description: A feeding test using Salinomycin as a mycelium was carried out on 47 piglets weaned at an early age (4 weeks old) which were kept in sub-groups comprising 4 and 3 animals, respectively. The initial weight was 9.8 kg on an average. The feed ration indicated in Example 1 served as basic feed.
4 Sub-groups comprising 15 animals altogether formed the untreated control group. 4 Sub-groups comprising 16 animals altogether were given 50 mg of Salinomycin as a mycelium per kg of feed, and 4 sub-groups comprising 16 animals altogether were given 50 mg of a comparison preparation A (5-Nitroimidazol) per kg of feed. The test period was 8 weeks, with individual weighing at intervals of 2 weeks.

specified microorganisms = settings: antibacterial spectrum, J. Antibiotics 1974; cited from earlier work
[4] = raw product 25 ppm, 8 weeks, ++ 99% significance
[5] = raw product 50 ppm, 8 weeks, +++ 99.9% significance
[6] = 50 mg per kg of feed as mycelium, 8 weeks
[7] = 50 ppm (Salinomycin as mycelium), 2 weeks
[8] = 50 ppm (Salinomycin as mycelium), 4 weeks
[9] = 50 ppm (Salinomycin as mycelium), 6 weeks
[10] = 50 ppm (Salinomycin as mycelium), 8 weeks
[11] = trypticase-soy-agar with 5% horse blood, CO2/H2 atmosphere

CC[C@H]1OC(=O)C[C@@H](O)[C@H](C)[C@@H](O[C@@H]2O[C@H](C)[C@@H](O[C@H]3C[C@@](C)(O)[C@@H](O)[C@H](C)O3)[C@H](N(C)C)[C@H]2O)[C@@H](CC=O)C[C@@H](C)C(=O)/C=C/C(C)=C/[C@@H]1CO[C@@H]1O[C@H](C)[C@@H](O)[C@@H](OC)[C@H]1OC [Tylosin]
MIC (Treponema hyodysenteriae): > 100 µg/mL

CC[C@H]1OC(=O)[C@H](C)[C@@H](O[C@H]2C[C@@](C)(OC)[C@@H](O)[C@H](C)O2)[C@H](C)[C@@H](O[C@@H]2O[C@H](C)C[C@H](N(C)C)[C@H]2O)[C@](C)(O)C[C@@H](C)C(=O)[C@H](C)[C@@H](O)[C@]1(C)O [Erythromycin]
MIC (Treponema hyodysenteriae): > 100 µg/mL

C[n+]1c2cc(N)ccc2cc2ccc(N)cc21.[Cl-] [3,6-Diamino-10-methyl-acridinium chloride]
MIC (Treponema hyodysenteriae): 100 µg/mL

CC[C@@H](C(=O)[C@@H](C)[C@@H](O)[C@H](C)[C@@H]1O[C@@H]([C@@H](CC)C(=O)O)CC[C@@H]1C)[C@H]1O[C@]2(C=C[C@@H](O)[C@]3(CC[C@@](C)([C@H]4CC[C@](O)(CC)[C@H](C)O4)O3)O2)[C@H](C)C[C@@H]1C [Salinomycin]
MIC (Treponema hyodysenteriae): 0.05 µg/mL (≈ 0.0666 µM) | effect on Treponema hyodysenteriae (Treponema hyodysenteriae; compared against commercial preparations, Table 1): superior effect | Incidence of diarrhea, per cent of test days ([1]; 50 ppm (Salinomycin as mycelium), 1st and 2nd week): 19.6% | Incidence of diarrhea in test days ([1]; 50 ppm (Salinomycin as mycelium), 1st and 2nd week, of 56 test days): 11 days | Incidence of diarrhea, per cent of test days ([1]; 50 ppm (Salinomycin as mycelium), 1st through 8th week): 10.7% | Incidence of diarrhea in test days ([1]; 50 ppm (Salinomycin as mycelium), 1st through 8th week, of 224 test days): 24 days | Incidence of diarrhea, per cent of test days ([1]; 50 ppm (Salinomycin as mycelium), 3rd and 4th week): 5.4% | Incidence of diarrhea in test days ([1]; 50 ppm (Salinomycin as mycelium), 3rd and 4th week, of 56 test days): 3 days | Incidence of diarrhea, per cent of test days ([1]; 50 ppm (Salinomycin as mycelium), 5th and 6th week): 7.1% | Incidence of diarrhea in test days ([1]; 50 ppm (Salinomycin as mycelium), 5th and 6th week, of 56 test days): 4 days | Incidence of diarrhea, per cent of test days ([1]; 50 ppm (Salinomycin as mycelium), 7th and 8th week): 10.7% | Incidence of diarrhea in test days ([1]; 50 ppm (Salinomycin as mycelium), 7th and 8th week, of 56 test days): 6 days | influence on the incidence of diarrhea ([1]; depending on the dosage, against untreated control and comparison preparation): very good influence on the incidence of diarrhea | Incidence of diarrhea, per cent of test days ([1]; raw product 25 ppm, 1st and 2nd week): 48.2% | Incidence of diarrhea in test days ([1]; raw product 25 ppm, 1st and 2nd week, of 56 test days): 27 days | Incidence of diarrhea, per cent of test days ([1]; raw product 25 ppm, 1st through 8th week): 60.3% | Incidence of diarrhea in test days ([1]; raw product 25 ppm, 1st through 8th week, of 224 test days): 135 days | Incidence of diarrhea, per cent of test days ([1]; raw product 25 ppm, 3rd and 4th week): 46.6% | Incidence of diarrhea in test days ([1]; raw product 25 ppm, 3rd and 4th week, of 56 test days): 26 days | Incidence of diarrhea, per cent of test days ([1]; raw product 25 ppm, 5th and 6th week): 69.6% | Incidence of diarrhea in test days ([1]; raw product 25 ppm, 5th and 6th week, of 56 test days): 39 days | Incidence of diarrhea, per cent of test days ([1]; raw product 25 ppm, 7th and 8th week): 76.8% | Incidence of diarrhea in test days ([1]; raw product 25 ppm, 7th and 8th week, of 56 test days): 43 days | Incidence of diarrhea, per cent of test days ([1]; raw product 50 ppm, 1st and 2nd week): 12.5% | Incidence of diarrhea in test days ([1]; raw product 50 ppm, 1st and 2nd week, of 56 test days): 7 days | Incidence of diarrhea, per cent of test days ([1]; raw product 50 ppm, 1st through 8th week): 19.1% | Incidence of diarrhea in test days ([1]; raw product 50 ppm, 1st through 8th week, of 224 test days): 43 days | Incidence of diarrhea, per cent of test days ([1]; raw product 50 ppm, 3rd and 4th week): 12.5% | Incidence of diarrhea in test days ([1]; raw product 50 ppm, 3rd and 4th week, of 56 test days): 7 days | Incidence of diarrhea, per cent of test days ([1]; raw product 50 ppm, 5th and 6th week): 28.6% | Incidence of diarrhea in test days ([1]; raw product 50 ppm, 5th and 6th week, of 56 test days): 16 days | Incidence of diarrhea, per cent of test days ([1]; raw product 50 ppm, 7th and 8th week): 23.2% | Incidence of diarrhea in test days ([1]; raw product 50 ppm, 7th and 8th week, of 56 test days): 13 days | statistical significance of the improvement (weight gain and feed efficiency) ([2]; raw product 25 mg per kg of feed): 99% | statistical significance of the improvement (weight gain and feed efficiency) ([2]; raw product 50 mg per kg of feed): 99.9% | Daily weight gain per animal ([2]; raw product 25 ppm, 2 weeks): 171 g | Feed efficiency per animal, absolute ([2]; raw product 25 ppm, 2 weeks): 1.900 | Weight gain per animal, absolute ([2]; raw product 25 ppm, 2 weeks): 2.4 kg | Feed efficiency per animal, relative ([2]; raw product 25 ppm, 2 weeks): 95.8% | Weight gain per animal, relative ([2]; raw product 25 ppm, 2 weeks): 104.3% | Daily weight gain per animal ([2]; raw product 25 ppm, 4 weeks): 250 g | Feed efficiency per animal, absolute ([2]; raw product 25 ppm, 4 weeks): 1.800 | Weight gain per animal, absolute ([2]; raw product 25 ppm, 4 weeks): 7.0 kg | Feed efficiency per animal, relative ([2]; raw product 25 ppm, 4 weeks): 95.7% | Weight gain per animal, relative ([2]; raw product 25 ppm, 4 weeks): 104.6% | Daily weight gain per animal ([2]; raw product 25 ppm, 6 weeks): 317 g | Feed efficiency per animal, absolute ([2]; raw product 25 ppm, 6 weeks): 1.802 | Weight gain per animal, absolute ([2]; raw product 25 ppm, 6 weeks): 13.0 kg | Feed efficiency per animal, relative ([2]; raw product 25 ppm, 6 weeks): 96.9% | Weight gain per animal, relative ([2]; raw product 25 ppm, 6 weeks): 103.3% | Daily weight gain per animal ([2]; raw product 25 ppm, 8 weeks): 380 g | Feed efficiency per animal, absolute ([2]; raw product 25 ppm, 8 weeks): 1.898 | Weight gain per animal, absolute ([2]; raw product 25 ppm, 8 weeks): 21.3 kg | Feed efficiency per animal, relative [2, 4]: 96.2% | Weight gain per animal, relative [2, 4]: 103.8% | Daily weight gain per animal ([2]; raw product 50 ppm, 2 weeks): 171 g | Feed efficiency per animal, absolute ([2]; raw product 50 ppm, 2 weeks): 1.900 | Weight gain per animal, absolute ([2]; raw product 50 ppm, 2 weeks): 2.4 kg | Feed efficiency per animal, relative ([2]; raw product 50 ppm, 2 weeks): 95.8% | Weight gain per animal, relative ([2]; raw product 50 ppm, 2 weeks): 104.3% | Daily weight gain per animal ([2]; raw product 50 ppm, 4 weeks): 257 g | Feed efficiency per animal, absolute ([2]; raw product 50 ppm, 4 weeks): 1.750 | Weight gain per animal, absolute ([2]; raw product 50 ppm, 4 weeks): 7.2 kg | Feed efficiency per animal, relative ([2]; raw product 50 ppm, 4 weeks): 93.0% | Weight gain per animal, relative ([2]; raw product 50 ppm, 4 weeks): 107.5% | Daily weight gain per animal ([2]; raw product 50 ppm, 6 weeks): 337 g | Feed efficiency per animal, absolute ([2]; raw product 50 ppm, 6 weeks): 1.698 | Weight gain per animal, absolute ([2]; raw product 50 ppm, 6 weeks): 13.8 kg | Feed efficiency per animal, relative ([2]; raw product 50 ppm, 6 weeks): 91.3% | Weight gain per animal, relative ([2]; raw product 50 ppm, 6 weeks): 109.8% | Daily weight gain per animal ([2]; raw product 50 ppm, 8 weeks): 396 g | Feed efficiency per animal, absolute ([2]; raw product 50 ppm, 8 weeks): 1.821 | Weight gain per animal, absolute ([2]; raw product 50 ppm, 8 weeks): 22.2 kg | Feed efficiency per animal, relative [2, 5]: 92.3% | Weight gain per animal, relative [2, 5]: 108.2% | statistical significance of the improvement of the feed efficiency [3, 6]: 99% | statistical significance of the improvement of the weight development [3, 6]: 99.9% | Daily weight gain per animal [3, 7]: 164 g | Feed efficiency per animal, absolute [3, 7]: 1.983 | Weight gain per animal, absolute [3, 7]: 2.3 kg | Feed efficiency per animal, relative [3, 7]: 100.0% | Weight gain per animal, relative [3, 7]: 100.0% | Daily weight gain per animal [3, 8]: 261 g | Feed efficiency per animal, absolute [3, 8]: 1.726 | Weight gain per animal, absolute [3, 8]: 7.3 kg | Feed efficiency per animal, relative [3, 8]: 91.8% | Weight gain per animal, relative [3, 8]: 109.2% | Daily weight gain per animal [3, 9]: 332 g | Feed efficiency per animal, absolute [3, 9]: 1.723 | Weight gain per animal, absolute [3, 9]: 13.6 kg | Feed efficiency per animal, relative [3, 9]: 92.6% | Weight gain per animal, relative [3, 9]: 108.1% | Daily weight gain per animal [3, 10]: 393 g | Feed efficiency per animal, absolute [3, 10]: 1.837 | Weight gain per animal, absolute [3, 10]: 22.0 kg | Feed efficiency per animal, relative ([3]; 50 ppm (Salinomycin as mycelium, ++ 99% significance), 8 weeks): 93.2% | Weight gain per animal, relative ([3]; 50 ppm (Salinomycin as mycelium, +++ 99.9% significance), 8 weeks): 107.4% | effect against the specified microorganisms (specified microorganisms): only an insiginificant or moderate effect

CN(C)[C@@H]1C(=O)C(C(N)=O)=C(O)[C@@]2(O)C(=O)C3=C(O)c4c(O)cccc4[C@@](C)(O)[C@H]3[C@H](O)[C@@H]12 [Oxytetracycline]
MIC (Treponema hyodysenteriae): 100 µg/mL (≈ 217 µM)

Cc1ncc([N+](=O)[O-])n1C [Dimethridazol]
MIC (Treponema hyodysenteriae; [11]): 5 µg/mL (≈ 35.4 µM)

CN(C)[C@@H]1C(O)=C(C(N)=O)C(=O)[C@@]2(O)C(O)=C3C(=O)c4c(O)cccc4[C@@](C)(O)[C@H]3C[C@@H]12 [Tetracycline-HCl]
MIC (Treponema hyodysenteriae): 50 µg/mL

CCOc1ccc2nc3cc(N)ccc3c(N)c2c1 [Ethacridine lactate]
MIC (Treponema hyodysenteriae; [11]): 100 µg/mL

CC(C)c1ncc([N+](=O)[O-])n1C [Ipronidazol]
MIC (Treponema hyodysenteriae; [11]): 2 µg/mL (≈ 11.8 µM)

From patent US4291053A, “Agent to be administered orally to domestic animals without cellulose digestion in the rumen” (Hoechst Aktiengesellschaft, priority 1976, dated 1981)
